This note sets out measurements from ChEMBL document CHEMBL4699500, “Synthesis of metronidazole based thiazolidinone analogs as promising antiamoebic agents” (Bioorg Med Chem Lett, 2020).

The subject of one series is Entamoeba histolytica. Put plainly: Antimicrobial activity against Entamoeba histolytica HM1:MMS assessed as reduction in amoeba growth incubated for 72 hrs by microscopy analysis. In kind it is functional, organism-based.
The subject of series [1] is HEK293. Put plainly: Cytotoxicity against human HEK293 cells assessed as reduction in cell viability at 2.5 to 50 uM incubated for 48 hrs by MTT assay. In kind it is cell-based. Particulars: hek293, 48 h, dose 2.5-50 µM. On the technique in general: Tetrazolium dyes change colour on reduction, which living cells bring about.
In series [2] the test system is HEK293. Put plainly: Cytotoxicity against human HEK293 cells assessed as reduction in cell viability at 100 uM incubated for 48 hrs by MTT assay. The class given is cell-based. As to conditions: hek293, 48 h.

The structures appear in SMILES notation.

Broadly, the IC50 is the concentration at which inhibition is half-maximal. For `Cc1ncc([N+](=O)[O-])n1CCOc1ccc(/C=C2\S/C(=N\c3ccccc3)N(Cc3ccc(Cl)cc3Cl)C2=O)cc1`, the IC50 in the series on Entamoeba histolytica was 2190 nM. In the case of `Cc1ncc([N+](=O)[O-])n1CCOc1ccc(/C=C2\S/C(=N\c3ccccc3)N(Cc3ccccc3Cl)C2=O)cc1`, the IC50 in the series on Entamoeba histolytica stood at 2320 nM. On to `Cc1ncc([N+](=O)[O-])n1CCOc1ccc(/C=C2\S/C(=N\c3ccccc3)N(Cc3ccccc3)C2=O)cc1`, for which the Activity entry in the series with HEK293 [1] and with HEK293 [2] was “Non-Toxic” throughout. Besides, the IC50 in the series with Entamoeba histolytica worked out at 1650 nM.

For the compound `COc1ccc(CN2C(=O)/C(=C/c3ccc(OCCn4c([N+](=O)[O-])cnc4C)cc3)S/C2=N\c2ccccc2)cc1OC`, the Activity result in the series on HEK293 [1] was “Non-Toxic”. In the series on Entamoeba histolytica, the IC50 worked out at 1050 nM. `Cc1ncc([N+](=O)[O-])n1CCOc1ccc(/C=C2\S/C(=N\c3ccccc3)N(Cc3cccs3)C2=O)cc1`: the Activity result with HEK293 [1] and with HEK293 [2] was “Non-Toxic” each time. The IC50 in the series on Entamoeba histolytica amounted to 1630 nM. In the case of `Cc1ncc([N+](=O)[O-])n1CCOc1ccc(/C=C2\S/C(=N\c3ccccc3)N(CC3CCCO3)C2=O)cc1` (stereo not drawn), in the series on Entamoeba histolytica, the IC50 was 3100 nM.

With `Cc1ncc([N+](=O)[O-])n1CCOc1ccc(/C=C2\S/C(=N\c3ccccc3)N(Cc3ccc(F)cc3)C2=O)cc1`, the IC50 with Entamoeba histolytica came to 2840 nM. With `Cc1ncc([N+](=O)[O-])n1CCOc1ccc(/C=C2\S/C(=N\c3ccccc3)N(CCO)C2=O)cc1`, the Activity result with HEK293 [1] is “Non-Toxic”. The IC50 in the series with Entamoeba histolytica came out at 180 nM. As to `CCCN1C(=O)/C(=C/c2ccc(OCCn3c([N+](=O)[O-])cnc3C)cc2)S/C1=N\c1ccccc1`, in the series on Entamoeba histolytica, the IC50 turned out to be 3620 nM. Consider `Cc1ncc([N+](=O)[O-])n1CCOc1ccc(/C=C2\S/C(=N\c3ccccc3)N(CC(C)C)C2=O)cc1`, for which, in the series with Entamoeba histolytica, the IC50 was found to be 3950 nM. Consider `Cc1ncc([N+](=O)[O-])n1CCOc1ccc(/C=C2\S/C(=N\c3ccccc3)N(Cc3ccncc3)C2=O)cc1`, for which the Activity entry with HEK293 [1] and in the series with HEK293 [2] was “Non-Toxic” each time. For the same compound, the IC50 in the series with Entamoeba histolytica was 370 nM. In the case of `Cc1ncc([N+](=O)[O-])n1CCO` [METRONIDAZOLE], the Activity entry in the series with HEK293 [1] was “Non-Toxic”.

For `CCCCN1C(=O)/C(=C/c2ccc(OCCn3c([N+](=O)[O-])cnc3C)cc2)S/C1=N\c1ccccc1`, in the series on Entamoeba histolytica, the IC50 is 4970 nM. As for `Cc1ncc([N+](=O)[O-])n1CCOc1ccc(/C=C2\S/C(=N\c3ccccc3)N(Cc3ccco3)C2=O)cc1`, the Activity result with HEK293 [1] was “Non-Toxic”. Also, the IC50 in the series with Entamoeba histolytica is 640 nM.
